Entries after “also recorded” stand apart in the source; their conditions may differ. Marks after values point to notes of the source that are not given here.
What was measured:
[1] = tested on: beta adrenergic blockade, isolated right auricle preparation of rabbit; assay: Beta blocking potency (pA2 against isoprenaline) in isolated rabbit right auricle; conditions: isoprenaline chronotropic response, Schild's plot
Procedure: Estimation of the beta blockade of various ratios of d- and l- isomers of sotalol was carried out in the isolated right auricle preparation of rabbit. The spontaneously beating right atrium was dissected and mounted in a 20 ml tissue bath. The resting tension on the atria was set at 1 g. The contractions were recorded using a force displacement transducer. The spontaneous contractions of the right atria were recorded isometrically and the heart rate was obtained as a derived parameter using a ratemeter that gave the output in beats per minute. Six different ratios of d and l isomers were investigated (1:1, 2:1, 3:1, 4:1, 5:1 and 1:0). Dose-response-curves (DRC) for isoprenaline in the isolated atria, using the chronotropic response were determined by cumulative addition of isoprenaline. The pA2 values of each of the ratios were estimated using the classical Schild's plot (Schild, 1957) and the values are shown in Table 1.

[2] = tested on: ouabain induced arrhythmia (VT, VF, mortality); assay: Ouabain induced arrhythmia model in guinea pig; type: in vivo; conditions: for actual incidence of mortality (value in parenthesis): 60 min; for actual incidence of mortality (value in parenthesis) / actual incidence of VF (value in parenthesis) / actual incidence of VT (value in parenthesis): number of animals of the group; for % INCIDENCE OF MORTALITY: mortality at 60 min; for deaths due to conduction block (60 min), actual incidence (value in parenthesis) / deaths due to tachyarrhythmia (60 min), actual incidence (value in parenthesis): number of animals; for % INCIDENCE OF VF / % INCIDENCE OF VT: ouabain 240 μg/kg in three doses, observed one hour; for DEATHS DUE TO CONDUCTION BLOCK (60 MIN) Percentage / DEATHS DUE TO TACHYARRHYTHMIA (60 MIN) Percentage: percentage deaths out of total mortality; for cause of deaths / mortality compared with control groups: no dose stated
Text: Method: Guinea pigs (Dunken Hartley) of either sex weighing between 400 and 500 g were used for the study. The animals were anesthetized with urethane (1.25 g/kg. i.p.). The left common carotid artery and left jugular vein were cannulated for arterial blood pressure monitoring and intravenous access respectively. Lead II electrocardiogram, arterial blood pressure, mean arterial blood pressure (MABP), heart rate were monitored throughout the experiment.
After initial surgical preparations and allowing 30 minutes for the animal to stabilise the first dose of ouabain (90 μg/kg) was administered over a period of one minute. After the interval of thirty minutes, second dose of ouabain (60 μg/kg) was administered over a period of one minute. One minute after this dose, 0.5 ml saline (in control experiments) was administered over a period of one minute. After an interval of 10 minutes a third dose of ouabain (90 μg/kg) was administered over a period of one minute. […] The test compounds were administered to animals in test group in place of saline to evaluate their antiarrhythmic potential. From the ECG recordings, the incidence of VT, VF and mortality were recorded. The doses of ratios of sotalol isomers studied were 0.1, 0.5 and 2.5 mg/kg.
Interpretation of ECG recordings: Minor disturbance in rhythm was not considered while evaluating ventricular tachyarrhythmias. A run of more than 3 ventricular ectopic beats having wide QRS complexes associated with partial haemodynamic collapse was considered as Ventricular Tachycardia (VT). Total morphological irregularity of repetitive complexes for at least six cycles associated with complete haemodynamic collapse was considered as Ventricular Fibrillation (VF). Successful arrhythmia protection was defined as no occurrence of VT and VF from the injection of saline/test drug till the end of the experiment.
Statistics: Chi square test with continuity correction at 95% confidence limit was applied to find out the statistical significance between control and test groups for incidence of VT, VF and mortality. Whenever, any of the value in a cell was less than 5, Fischer's exact probability test was used.
Results: Different ratios of sotalol in the dose range from 0.02 mg/kg to 12.5 mg/kg were studied in individual groups of animals. In all 18 groups were studied and at least 6 animals were used in each group. In control animals ouabain 240 μg/kg in three divided doses induced reproducible ventricular tachyarrhythmias in guinea pigs. It was observed that ventricular arrhythmias appeared after the administration of the third dose. Guinea pigs which responded early i.e. before or within 1 min. of administration of the second dose, were considered early responders and were not included in the study. […] In the study, control experiments were carried out randomly interspersed in test groups. Among the 42 control animals the incidence of VT was 81%, incidence of VF was 71.4% and the incidence of mortality at 60 minutes was 61.9%.

[3] = guinea pig, in vivo, listed as 2:1 ratio (d:l)

`CC(C)NCC(O)c1ccc(NS(C)(=O)=O)cc1` (stereo not shown) [2:1 RATIO, N-[4-[1-hydroxy-2-[(1-methylethyl)amino]ethyl]phenyl] methane sulfonamide] was tested, and the “pA2 Mean” value ([1]; listed as 2:1) was 6.28, the “protection against VF” value ([2]; 0.5 mg/kg) was “some protection, it was not complete” and the “actual incidence of mortality (value in parenthesis)” value (from here on “actual incidence of mortality”) ([2]; 0.5 mg/kg) was “(3)”. For the same compound, the “protection against ouabain induced VT” value ([2]; 0.5 mg/kg, listed as 2:1 ratio (d:l)) was “some protection, it was not significant”, the “% INCIDENCE OF MORTALITY” value ([2]; 0.5 mg/kg) was 50.0% and the “deaths due to conduction block (60 min), actual incidence (value in parenthesis)” value ([2]; 0.5 mg/kg) was “(3)”. For the same compound, the “deaths due to tachyarrhythmia (60 min), actual incidence (value in parenthesis)” value ([2]; 0.5 mg/kg) was “(0)”, the “actual incidence of VF (value in parenthesis)” value (“actual incidence of VF” below) ([2]; 0.5 mg/kg) was “(2)” and the “actual incidence of VT (value in parenthesis)” value (“actual incidence of VT” below) ([2]; 0.5 mg/kg) was “(3)”. The “% INCIDENCE OF VF” value ([2]; 0.5 mg/kg) was 33.3%, the “% INCIDENCE OF VT” value ([2]; 0.5 mg/kg) was 50.0% and the “DEATHS DUE TO CONDUCTION BLOCK (60 MIN) Percentage” value ([2]; 0.5 mg/kg) was 100.0%. The “DEATHS DUE TO TACHYARRHYTHMIA (60 MIN) Percentage” value ([2]; 0.5 mg/kg) was 00.0%, the protection against mortality ([2]; 2.5 mg/kg) was “protected significantly” and the “protection from deaths due to tachyarrhythmias” value ([2]; 2.5 mg/kg) was “completely protected”. The “protection against arrhythmias (VT and VF)” value (“protection … (VT and VF)” below) ([2]; 2.5 mg/kg, listed as 2:1) was “completely protects; also recorded: complete protection”, the “% INCIDENCE OF MORTALITY” value ([2]; 2.5 mg/kg) was 16.6% and the “% INCIDENCE OF MORTALITY” value ([2]; 2.5 mg/kg, listed as 2:1) was 16.6%. For the same compound, the “deaths due to conduction block (60 min), actual incidence (value in parenthesis)” value ([2]; 2.5 mg/kg) was “(1)”, the “deaths due to tachyarrhythmia (60 min), actual incidence (value in parenthesis)” value ([2]; 2.5 mg/kg) was “(0)” and the “actual incidence of VF” value ([2]; 2.5 mg/kg) was “(0)*”. The “actual incidence of VT” value ([2]; 2.5 mg/kg) was “(0)*”, the “% INCIDENCE OF VF” value ([2]; 2.5 mg/kg) was 00.0% and the “% INCIDENCE OF VT” value ([2]; 2.5 mg/kg) was 00.0%. For the same compound, the “DEATHS DUE TO CONDUCTION BLOCK (60 MIN) Percentage” value ([2]; 2.5 mg/kg) was 100.0%, the “DEATHS DUE TO TACHYARRHYTHMIA (60 MIN) Percentage” value ([2]; 2.5 mg/kg) was 00.0% and the “dose at which complete protection against VT was observed” value [2, 3] was 2.5 mg/kg. For the same compound, the “dose that completely protected against VF” value [2, 3] was 2.5 mg/kg, the cause of deaths [2] was “due to conduction abnormalities” and the “mortality compared with control groups” value [2] was “less than that of control groups”.
In the case of `CC(C)NCC(O)c1ccc(NS(C)(=O)=O)cc1` (stereo not shown) [3:1 RATIO, N-[4-[1-hydroxy-2-[(1-methylethyl)amino]ethyl]phenyl] methane sulfonamide], the “pA2 Mean” value ([1]; listed as 3:1) is reported as 6.15, the “actual incidence of mortality” value ([2]; 0.1 mg/kg) is reported as “(2)” and the “% INCIDENCE OF MORTALITY” value ([2]; 0.1 mg/kg) is reported as 33.3%. The “deaths due to conduction block (60 min), actual incidence (value in parenthesis)” value ([2]; 0.1 mg/kg) was “(1)”, the “deaths due to tachyarrhythmia (60 min), actual incidence (value in parenthesis)” value ([2]; 0.1 mg/kg) was “(1)” and the “actual incidence of VF” value ([2]; 0.1 mg/kg) was “(4)”. The “actual incidence of VT” value ([2]; 0.1 mg/kg) was “(4)”, the “% INCIDENCE OF VF” value ([2]; 0.1 mg/kg) was 66.6% and the “% INCIDENCE OF VT” value ([2]; 0.1 mg/kg) was 66.6%. The “DEATHS DUE TO CONDUCTION BLOCK (60 MIN) Percentage” value ([2]; 0.1 mg/kg) was 50.0%, the “DEATHS DUE TO TACHYARRHYTHMIA (60 MIN) Percentage” value ([2]; 0.1 mg/kg) was 50.0% and the “actual incidence of mortality” value ([2]; 0.5 mg/kg) was “(3)”. The “protection against ouabain induced VT” value ([2]; 0.5 mg/kg, listed as 3:1 ratio (d:l)) was “showed protection”, the “% INCIDENCE OF MORTALITY” value ([2]; 0.5 mg/kg) was 37.5% and the “deaths due to conduction block (60 min), actual incidence (value in parenthesis)” value ([2]; 0.5 mg/kg) was “(3)”. The “deaths due to tachyarrhythmia (60 min), actual incidence (value in parenthesis)” value ([2]; 0.5 mg/kg) was “(0)*”, the “actual incidence of VF” value ([2]; 0.5 mg/kg) was “(2)” and the “actual incidence of VT” value ([2]; 0.5 mg/kg) was “(3)*”. For the same compound, the “% INCIDENCE OF VF” value ([2]; 0.5 mg/kg) was 25.0%, the “% INCIDENCE OF VT” value ([2]; 0.5 mg/kg) was 37.5% and the “DEATHS DUE TO CONDUCTION BLOCK (60 MIN) Percentage” value ([2]; 0.5 mg/kg) was 100.0%. The “DEATHS DUE TO TACHYARRHYTHMIA (60 MIN) Percentage” value ([2]; 0.5 mg/kg) was 00.0%, the “protection … (VT and VF)” value ([2]; 2.5 mg/kg) was “protected” and the “protection from deaths due to tachyarrhythmias” value ([2]; 2.5 mg/kg) was “completely protected”. The “actual incidence of mortality” value ([2]; 2.5 mg/kg) was “(2)”, the “protection … (VT and VF)” value ([2]; 2.5 mg/kg, listed as 3:1) was “complete protection” and the “% INCIDENCE OF MORTALITY” value ([2]; 2.5 mg/kg) was 33.3%. For the same compound, the “% INCIDENCE OF MORTALITY” value ([2]; 2.5 mg/kg, listed as 3:1 ratio) was 33.3%, the “deaths due to conduction block (60 min), actual incidence (value in parenthesis)” value ([2]; 2.5 mg/kg) was “(2)” and the “deaths due to tachyarrhythmia (60 min), actual incidence (value in parenthesis)” value ([2]; 2.5 mg/kg) was “(0)”. For the same compound, the “actual incidence of VF” value ([2]; 2.5 mg/kg) was “(0)*”, the “actual incidence of VT” value ([2]; 2.5 mg/kg) was “(0)*” and the “% INCIDENCE OF VF” value ([2]; 2.5 mg/kg) was 00.0%. The “% INCIDENCE OF VT” value ([2]; 2.5 mg/kg) was 00.0%, the “DEATHS DUE TO CONDUCTION BLOCK (60 MIN) Percentage” value ([2]; 2.5 mg/kg) was 100.0% and the “DEATHS DUE TO TACHYARRHYTHMIA (60 MIN) Percentage” value ([2]; 2.5 mg/kg) was 00.0%. The mortality ([2]; 0.5 and 2.5 mg/kg dose) was “low”, the “dose at which complete protection against VT was observed” value ([2]; guinea pig, in vivo, listed as 3:1 ratio (d:l)) was 2.5 mg/kg and the cause of deaths [2] was “due to conduction abnormalities”. For the same compound, the “mortality compared with control groups” value [2] was “less than that of control groups”.
